Experimental data published in US11352358B2, “FXR agonist” (XUANZHU BIOPHARMACEUTICAL CO., LTD., priority 2017, dated 2022).
Marks after values point to notes of the source that are not given here.

System: high fat-induced NAFLD/NASH mice
Assay: High fat-induced NAFLD/NASH mice (Experimental Example 5)
Format: in vivo, C57BL/6J male mice
Description: Build of NAFLD/NASH (non-alcoholic fatty liver disease/nonalcoholic steatohepatitis) mouse models: six-week-old C57BL/6J male mice were fed with high-fat feed, and were weighed each week to record the body weights of the mice; and after high-fat feeding for 8 weeks, the mice were weighed to determine whether the modeling is successful.
According to the body weight values (40 g was generally considered as a screening critical point), the successfully-modeled mice were divided into a blank control group, a model control group and the compound 2-1 (1 mg/kg) group, wherein the average body weights of all groups were consistent, without any significant difference. The mice were administered once every day (QD) (8 # intragastric syringe) for 3 weeks.
24 hrs after the last administration, blood was sampled from the inner canthus; the sampled blood stood at room temperature for 1 to 2 hrs, and was centrifuged at 4,000 rpm for 15 mins, and the serum was collected; the mice were euthanized thereafter, and a large liver lobe and a small liver lobe were cut off and put into 10% neutral formalin, and the remainings were stored in a refrigerator at −80° C. For the detailed administration method, administration dosage and administration route, see the table below.
Route, dosage and regimen of administration in experiment for influence of compounds of the present invention on high fat-induced NAFLD/NASH mice
2.1 Experimental Observation Index • 1) Body weight: Weighing was performed once every week from the beginning of modeling. Weighing was performed once every week after administration. • 2) Analysis of morphological and pathological changes of livers: Liver tissues were separated, collected and photographed. The livers were weighed, and ratios of liver weight/body weight were calculated. The tissue was sliced and stained by H&E (NAFLD score, NAS). • 3) Assay of biochemical indexes of livers: TG in the livers was extracted according to the manual of a tissue cell triglyceride assay kit (purchased from Applygen Technologies Inc. E1013), and assayed. • 4) Assay of biochemical indexes of serums: LDL in serums was assayed with a full-automatic biochemical analyzer (Hitachi 7180, model: X594).
Data were represented by mean±S.E.M., and one-way analysis of variance (ANOVA) followed LSD or independent-sample T test were performed on the statistical data with statistical software SPSS 16.0. Statistical differences were tested, and p<0.05 was defined as a significant difference.

## O=C(O)c1ccc2nc(N3C[C@@H]4C[C@H]3C[C@H]4OCc3c(-c4c(Cl)cccc4Cl)noc3C3CC3)sc2c1 [Compound 2-1, 2-((1S, 4S, 5R)-5-((5-cyclopropyl-3-(2,6-dichlorophenyl)isoxazol-4-yl)methoxy)-2-azabicyclo[2.2.1]heptan-2-yl)benzo[d]thiazole-6-carboxylic acid]
1 mg/kg p.o. QD for 3 weeks, increased or decreased ratio of the experimental group to the model group
  Liver Weight/Body Weight: −9%*
H&E liver slices, 1 mg/kg p.o. QD for 3 weeks, model group 3, p<0.001
  NAFLD Activity Score: 1
At the administration dosage (1 mg/kg)
  effect on the NAFLD symptom of the mice: good improving effect
Liver TG, 1 mg/kg p.o. QD for 3 weeks, increased or decreased ratio of the experimental group to the model group
  TG: −53%*
serum, 1 mg/kg p.o. QD for 3 weeks, model group 0.31, p<0.01
  LDL: 0.21
